Experimental data as given in the supplement of paper PMC10307832.

Columns and labels:
Assay in all cases: relative viability (nuclei count vs DMSO), 5 days (fraction); higher = more cells survive
[1] = compound: CC(C)=CC[C@@H](O)C1=CC(=O)c2c(O)ccc(O)c2C1=O [Shikonin] + Cc1cc(Nc2cc(N3CCN(C)CC3)nc(Sc3ccc(NC(=O)C4CC4)cc3)n2)n[nH]1 [Tozasertib] (partner 0.1 µM)
Summary of the method: (§1)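 Lung cancer cell lines were pin-tool dosed in 1536-well plates on the day after seeding, with either a lone drug or a fixed anchor-drug dose plus five library-drug doses (not always all listed) in √10 steps. Nuclei were counted on 4× images after 5 days. Relative viability is the ratio of treated-well to vehicle-well nuclei counts, with each value a median of duplicate plates.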

[2] = compound: CC(C)N(CCCNC(=O)Nc1ccc(C(C)(C)C)cc1)C[C@H]1O[C@@H](n2ccc3c(N)ncnc32)[C@H](O)[C@@H]1O + CC1(C)CCC(c2ccc(Cl)cc2)=C(CN2CCN(c3ccc(C(=O)NS(=O)(=O)c4ccc(N[C@H](CCN5CCOCC5)CSc5ccccc5)c(S(=O)(=O)C(F)(F)F)c4)cc3)CC2)C1 [Navitoclax] (partner 0.5 µM)
Summary of the method: as §1

[3] = compound: CC(C)N(CCCNC(=O)Nc1ccc(C(C)(C)C)cc1)C[C@H]1O[C@@H](n2ccc3c(N)ncnc32)[C@H](O)[C@@H]1O + C[C@@H](Oc1cc(-c2cnn(C3CCNCC3)c2)cnc1N)c1c(Cl)ccc(F)c1Cl [Crizotinib] (partner 1 µM)
Summary of the method: as §1

[4] = compound: CC(C)N(CCCNC(=O)Nc1ccc(C(C)(C)C)cc1)C[C@H]1O[C@@H](n2ccc3c(N)ncnc32)[C@H](O)[C@@H]1O + Nc1nc2[nH]cc(CCc3ccc(C(=O)N[C@@H](CCC(=O)O)C(=O)O)cc3)c2c(=O)[nH]1 [Pemetrexed] (partner 0.2 µM)
Summary of the method: as §1

Cell Line	relative viability ([1]; first compound 0.01 µM)	relative viability ([1]; first compound 0.1 µM)	relative viability ([1]; first compound 0.3162 µM)	relative viability ([1]; first compound 1 µM)	relative viability ([2]; first compound 0.253 µM)	relative viability ([2]; first compound 0.8 µM)	relative viability ([2]; first compound 2.53 µM)	relative viability ([2]; first compound 8 µM)	relative viability ([3]; first compound 0.08 µM)	relative viability ([3]; first compound 0.253 µM)	relative viability ([3]; first compound 0.8 µM)	relative viability ([3]; first compound 2.53 µM)	relative viability ([3]; first compound 8 µM)	relative viability ([4]; first compound 0.08 µM)	relative viability ([4]; first compound 0.253 µM)	relative viability ([4]; first compound 2.53 µM)	relative viability ([4]; first compound 8 µM)	relative viability ([2]; first compound 0.08 µM)	relative viability ([4]; first compound 0.8 µM)
NCI-H441	0.898	0.617	0.663	0.601	0.66	0.682	0.698	0.63	0.815	0.872	1.09	0.714	0.673	0.271	0.242	0.263	0.253	–	–
NCI-H23	0.363	0.335	0.658	0.413	–	0.698	0.822	0.75	0.487	–	0.506	0.694	0.534	0.732	–	0.709	0.627	0.771	0.693
SK-MES-1	1.1	1.05	0.998	0.857	1.26	1.28	1.18	1.19	0.991	1.05	1.01	0.997	0.956	1.05	0.915	1.03	0.912	1.12	0.819
NCI-H2170	0.68	0.494	0.695	0.739	0.637	0.594	0.567	0.544	1.12	1.18	1.22	1.19	1.28	0.261	0.263	0.296	0.29	0.605	0.261
NCI-H2087	0.307	0.254	0.198	0.202	1.11	0.896	1.14	0.989	0.981	1.04	1.16	0.945	0.795	0.718	0.653	0.735	0.662	1.04	0.714
NCI-H1993	0.627	0.547	0.571	0.551	1.03	0.872	0.807	0.959	0.767	0.935	0.877	0.841	0.888	0.564	–	0.638	0.543	0.944	0.533
PC-14	0.619	0.638	0.743	0.652	0.996	0.946	1.03	0.847	0.907	0.881	0.97	0.943	0.723	0.149	0.171	0.141	0.163	1	0.138
NCI-H460	0.456	0.496	0.483	0.414	1.16	1.12	1.27	0.9	0.827	1.1	0.958	0.88	0.696	0.0586	0.06	0.0624	0.0643	1.01	0.0609
LOU-NH91	0.685	0.711	0.613	0.683	0.581	–	0.652	0.606	0.755	0.735	–	0.7	0.721	0.359	0.373	0.439	0.427	0.628	–
NCI-H322M	0.486	0.467	0.478	0.381	1.09	1.19	1.2	1.16	0.912	1.04	0.802	0.969	0.962	0.634	0.609	0.593	0.631	1.16	0.617
NCI-H596	0.79	0.83	0.914	0.732	0.877	0.909	1.01	0.992	0.934	0.796	0.938	1	1.12	0.515	0.465	0.53	0.493	0.98	0.514
NCI-H838	0.289	0.264	0.257	0.29	1.1	1.2	1.15	1.14	0.796	0.873	0.91	0.778	0.759	0.259	0.223	0.245	0.235	1.12	0.283
